How the values were obtained:
[1] = in vitro; cited from earlier work
[2] = cited from earlier work; for pharmacokinetic comparison of leucovorin and levoleucovorin: in vivo
[3] = test system: solid colorectal cancer tumors (mCRC, incl. BRAF- or KRAS-mutated); assay: Clinical study ISO-CC-005 (Phase I/IIa), safety extension cohorts and follow-up study: tumour response by CT, ORR per RECIST 1.1; format: in vivo, human; conditions: 19 patients harbouring either mutated KRAS or BRAF; 16 weeks and beyond; 120 mg/m2 arfolitixorin
Excerpt: As used herein, the term ORR shall refer to the Objective Response Rate, i.e. the proportion of patients with a reduction in tumor burden of a predefined amount. […] (Note: the appearance of one or more new lesions is also considered progression). […] As used herein, the term best ORR shall refer to the best overall response rate as per RECIST guideline version 1.1 for the treatment period, where applicable. Arfolitixorin has been in development for a number of years and has been studied in several clinical studies. […] 2019. The completion of the study was announced in January 2020. In total, 105 patients were included in the study. Applicant completed the dose definition part of ISO-CC-005 in March 2018, which evaluated the safety and efficacy of arfolitixorin in patients with mCRC. Shortly after, applicant started two additional treatment groups in 2018 to generate more safety and efficacy data, i.e. the safety extension Cohort #18 (Treatment Arm #4) and Cohort #19 (Treatment Arm #6). The aim was to evaluate as many patients as possible from the additional treatment groups after a treatment period of 16 weeks+. On 30 Sep. […] The goal with the Dose-finding Part of the Main Study was to establish the Arfolitixorin dose level assessed as having the most favourable profile, i.e. the selected phase 2 dose (SP2D). […] Response was measured in short- and long-term assessments. […]

In the case of `Nc1nc(=O)c2c([nH]1)NC[C@H](CNc1ccc(C(=O)N[C@@H](CCC(=O)O)C(=O)O)cc1)N2C=O` [1-LV], the “conversion to the biologically available methyl-tetrahydrofolate form” value [1] is given as “rapidly converted” and the “pharmacokinetic comparison of leucovorin and levoleucovorin” value [2] is given as “pharmacokinetically identical”.
For `Nc1nc2c(c(=O)[nH]1)N(C=O)C(CNc1ccc(C(=O)N[C@@H](CCC(=O)O)C(=O)O)cc1)CN2` (some centres unmarked) [Leucovorin, 5-formyl tetrahydrofolic acid], the “pharmacokinetic comparison of leucovorin and levoleucovorin” value [2] is given as “pharmacokinetically identical”.
In the case of `Nc1nc2c(c(=O)[nH]1)N1CN(c3ccc(C(=O)N[C@@H](CCC(=O)O)C(=O)O)cc3)C[C@H]1CN2` [[6R]-5,10-MTHF, [6R]-5,10-methylenetetrahydrofolate], the “best ORR” value [3] is reported as over 50%.
In the case of `Nc1nc2c(c(=O)[nH]1)N(C=O)[C@H](CNc1ccc(C(=O)N[C@@H](CCC(=O)O)C(=O)O)cc1)CN2` [d-LV], the excretion ([2]; kidneys) is listed as “slowly excreted by the kidneys”.

— patent publication US20230095428A1, “[6R]-MTHF IN 5-FU BASED CHEMOTHERAPY OF BRAF- OR KRAS-MUTATED COLORECTAL CANCER” (Isofol Medical AB, priority 2021, published 2023)
